In patent US6852740B2, “Pyrazole derivatives as p38 kinase inhibitors” (G. D. Searle & Co., priority 1997, dated 2005) one finds melting point and IC50 data, which are given here for 3 compounds.

For orientation: melting point means the temperature of the solid-liquid transition. One may read the IC50 as the midpoint of a concentration-inhibition curve.

Series [1] addresses T1, human p38 kinase alpha (Homo sapiens, UniProt Q16539).
T1 construct: The coding region of the human p38a cDNA was obtained by PCR-amplification from RNA; made in house; host or cells: E. coli DH10B
Kind of series: p38α in vitro kinase assay, EGFRP procedure. The class given is biochemical. The procedure: A second assay format was also employed that is based on p38 kinase alpha induced phosphorylation of EGFRP (epidermal growth factor receptor peptide, a 21 mer) in the presence of ^33P-ATP. Compounds were tested in 10 fold serial dilutions over the range of 100 μM to 0.001 μM in 1% DMSO. Each concentration of inhibitor was tested in triplicate. Compounds were evaluated in 50 μl reaction volumes in the presence of 25 mM Hepes pH 7.5, 10 mM magnesium acetate, 4% glycerol, 0.4% bovine serum albumin, 0.4 mM DTT, 50 μM unlabeled ATP, 25 μg EGFRP (200 μM), and 0.05 uCi gamma ^33P-ATP. Reactions were initiated by addition of 0.09 μg of activated, purified human GST-p38 kinase alpha. Activation was carried out using GST-MKK6 (5:1,p38:MKK6) for one hour at 30° C. in the presence of 50 μM ATP. Following incubation for 60 minutes at room temperature, the reaction was stopped by addition of 150 μl of AG 1×8 resin in 900 mM sodium formate buffer, pH 3.0 (1 volume resin to 2 volumes buffer). The mixture was mixed three times with pipetting and the resin was allowed to settle. A total of 50 μl of clarified solution head volume was transferred from the reaction wells to Microlite-2 plates. 150 μl of Microscint 40 was then added to each well of the Microlite plate, and the plate was sealed, mixed, and counted.

The subject of series [2] is TNF-α release by U937 cells. Put plainly: LPS stimulation of TNF production by U937 cells. To be noted: Homo sapiens, U-937; LPS-stimulated differentiated U937 cells, TNF-α by ELISA after 4 hour incubation; read-out: TNF Cell IC50. The class given is cell-based. The protocol:
U937 cells (ATCC) were propagated in RPMI 1640 containing 10% fetal bovine serum, 100 IU/ml penicillin, 100 μg/ml streptomycin, and 2 mM glutamine (Gibco). Fifty million cells in 100 ml media were induced to terminal monocytic differentiation by 24 hour incubation with 20 ng/ml phorbol 12-myristate 13-acetate (Sigma). The cells were washed by centrifugation (200×g for 5 min) and resuspended in 100 ml fresh medium. After 24-48 hours, the cells were harvested, centrifuged, and resuspended in culture medium at 2 million cells/ml.
U937 cells (0.1 ml, 2 million/ml) were incubated with 0.1 ml compound (0.004-50 μM, final concentration) for 1 hour in 96 well microtiter plates. Compounds were prepared as 10 mM stock solutions in DMSO and diluted in culture medium to yield a final DMSO concentration of 0.1% in the cell assay. LPS (E coli, 100 ng/ml final concentration) was then added at a volume of 0.02 ml. After 4 hour incubation at 37° C., the amount of TNF-α released in the culture medium was quantitated by ELISA. Inhibitory potency is expressed as IC50 (μM).
Background: An ELISA detects its analyte on a solid surface through an enzyme-linked reagent.

Series [3] concerns the target T1, human p38 kinase alpha. Put plainly: p38α in vitro kinase assay, PHAS-I procedure. The class given is biochemical. The procedure: The ability of compounds to inhibit human p38 kinase alpha was evaluated using two in vitro assay methods. In the first method, activated human p38 kinase alpha phosphorylates a biotinylated substrate, PHAS-I (phosphorylated heat and acid stable protein-insulin inducible), in the presence of gamma ^32P-ATP (^32P-ATP). PHAS-I was biotinylated prior to the assay and provides a means of capturing the substrate which is phosphorylated during the assay. p38 Kinase was activated by MKK6. Compounds were tested in 10 fold serial dilutions over the range of 100 μM to 0.001 μM using 1% DMSO. Each concentration of inhibitor was tested in triplicate.
All reactions were carried out in 96 well polypropylene plates. Each reaction well contained 25 mM HEPES pH 7.5, 10 mM magnesium acetate and 50 μM unlabeled ATP. Activation of p38 was required to achieve sufficient signal in the assay. Biotinylated PHAS-I was used at 1-2 μg per 50 μl reaction volume, with a final concentration of 1.5 μM. Activated human p38 kinase alpha was used at 1 μg per 50 μl reaction volume representing a final concentration of 0.3 μM. […]
Following incubation, 20 μl of reaction mixture was transferred to a high capacity streptavidin coated filter plate (SAM-streptavidin-matrix, Promega) prewetted with phosphate buffered saline. […] The plates were sealed and counted.

T1 sequence (Q16539 whole entry): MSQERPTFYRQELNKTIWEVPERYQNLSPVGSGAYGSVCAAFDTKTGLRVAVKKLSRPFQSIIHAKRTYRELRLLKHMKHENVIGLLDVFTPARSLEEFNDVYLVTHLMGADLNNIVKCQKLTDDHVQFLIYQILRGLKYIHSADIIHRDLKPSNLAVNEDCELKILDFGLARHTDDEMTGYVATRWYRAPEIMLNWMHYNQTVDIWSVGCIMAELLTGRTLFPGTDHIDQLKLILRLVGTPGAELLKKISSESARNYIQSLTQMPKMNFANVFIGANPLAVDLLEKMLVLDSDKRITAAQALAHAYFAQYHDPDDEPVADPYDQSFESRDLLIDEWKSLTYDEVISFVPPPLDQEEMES

In the case of `c1ccc(CCc2n[nH]cc2-c2ccncc2)cc1` [Example 3, 4-[5-(2-phenylethyl)-1H-pyrazol-4-yl]pyridine], the melting point lay within 125 to 131 °C.
As to `Cc1n[nH]c(/C=C/c2ccccc2)c1-c1ccncc1` [Example 1, 4-[3-Methyl-5-(2-phenylethenyl)-1H-pyrazol-4-yl]pyridine], the IC50 is 0.66 µM at human p38 kinase alpha [1], 0.6 µM in series [2] and 8.7 µM on human p38 kinase alpha [3].
Regarding `Cc1n[nH]c(CCc2ccccc2)c1-c1ccncc1` [Example 2, 4-[3-Methyl-5-(2-phenylethyl)-1H-pyrazol-4-yl]pyridine], the values for the IC50 (against human p38 kinase alpha [1]; in series [2]; against human p38 kinase alpha [3]) were 2.8 µM, 2.3 µM and 1 µM, respectively.
